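The compound was tested at five concentrations on cells cultured in 96-well plates, with a 48-hour exposure period. GI50 = concentration required for 50% inhibition of growth.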 The source made the active and inactive calls. No stated cut-off is given here; in the data, active = GI50 up to about 1.1 µM and inactive = higher.
Tests used:
Test in all cases: growth of human tumour cells (NCI), 48 h
SF-295 = test system: SF-295
SK-MEL-28 = test system: SK-MEL-28
HCT-116 = test system: HCT-116
HCT-15 = test system: HCT-15
A549 = test system: A549
MDA-MB-231 = test system: MDA-MB-231
MOLT-4 = test system: MOLT-4
BT-549 = test system: BT-549
MCF7 = test system: MCF7
UACC-62 = test system: UACC-62
SN12C = test system: SN12C
NCI/ADR-RES = test system: NCI/ADR-RES
NCI-H522 = test system: NCI-H522
HT-29 = test system: HT-29
M14 = test system: M14
K562 = test system: K562
HOP-92 = test system: HOP-92
SR = test system: SR
T47D = test system: T47D

Structure (SMILES)	GI50 (SF-295)	GI50 (SK-MEL-28)	GI50 (HCT-116)	GI50 (HCT-15)	GI50 (A549)	GI50 (MDA-MB-231)	GI50 (MOLT-4)	GI50 (BT-549)	GI50 (MCF7)	GI50 (UACC-62)	GI50 (SN12C)	GI50 (NCI/ADR-RES)	GI50 (NCI-H522)	GI50 (HT-29)	GI50 (M14)	GI50 (K562)	GI50 (HOP-92)	GI50 (SR)	GI50 (T47D)
Nn1c(CCCCCCCCc2nnc(COc3ccc(Cl)cc3Cl)n2N)nnc1COc1ccc(Cl)cc1Cl	> 10 µM (inactive)	68.5 µM (inactive)	16.7 µM (inactive)	37.7 µM	32.7 µM (inactive)	52.4 µM (inactive)	20 µM (inactive)	35.9 µM (inactive)	34.9 µM (inactive)	38.6 µM (inactive)	22.2 µM (inactive)	31.1 µM (inactive)	17.3 µM (inactive)	29.1 µM (inactive)	49.3 µM (inactive)	63.8 µM (inactive)	28.4 µM (inactive)		
C/C=C\C(CC(=O)O)CN1CCC2=C(C1)C(S(=O)(=O)C(F)(F)F)c1ccccc12 (configuration not stated)	> 100 µM (inactive)	> 100 µM (inactive)	> 100 µM (inactive)	> 100 µM	> 100 µM (inactive)	> 100 µM (inactive)	> 100 µM (inactive)	> 100 µM (inactive)	> 100 µM (inactive)	> 100 µM (inactive)		> 100 µM (inactive)	> 100 µM (inactive)	> 100 µM (inactive)	> 100 µM (inactive)	> 100 µM (inactive)	> 100 µM (inactive)	> 100 µM (inactive)	
Nc1nc(N)c2nc(CNc3ccc(C(=O)NC(CCNC(=O)c4ccccc4C(=O)O)C(=O)O)cc3)cnc2n1 (configuration not stated)	0.0718 µM (active)	4.14 µM (inactive)	0.00502 µM (active)	0.01 µM	0.01 µM (active)	> 100 µM (inactive)	< 0.0154 µM (active)	> 100 µM (inactive)	0.01 µM (active)	< 0.0126 µM (active)	0.01 µM (active)	< 0.0173 µM (active)	0.0897 µM (active)	0.01 µM (active)	0.01 µM (active)	0.01 µM (active)	0.0698 µM (active)	0.01 µM (active)	
CNC(=O)N1CN(c2ccccc2)C2(CCN(Cc3ccccc3)CC2)C1=O	> 100 µM (inactive)	> 100 µM (inactive)	24.9 µM (inactive)	15 µM	> 100 µM (inactive)	19.5 µM (inactive)	14.2 µM (inactive)		8.93 µM (inactive)	69.8 µM (inactive)	> 100 µM (inactive)	12.2 µM (inactive)	> 100 µM (inactive)	15.6 µM (inactive)	> 100 µM (inactive)	31.8 µM (inactive)		15.7 µM (inactive)	1.87 µM (inactive)
Cc1ccc(-n2cc(-c3ccc(Cl)cc3)c3c2N=CN2N=C(c4ccco4)NC32)cc1 (configuration not stated)	6.11 µM (inactive)	71 µM (inactive)	7.05 µM (inactive)	> 100 µM	15 µM (inactive)	5 µM (inactive)		26.2 µM (inactive)	23.7 µM (inactive)	13.1 µM (inactive)	3.62 µM (inactive)	7.5 µM (inactive)	15.8 µM (inactive)	> 100 µM (inactive)	28.8 µM (inactive)	7.41 µM (inactive)	2.09 µM (inactive)	0.78 µM (active)	
CCOC(CCCN1CCC2(CC1)C(=O)N(C)CN2c1ccccc1)(OCC)c1ccc(F)cc1	12.7 µM (inactive)	16.8 µM (inactive)	3.82 µM (inactive)	10.1 µM	8.65 µM (inactive)	14.2 µM (inactive)	7.11 µM (inactive)		3.8 µM (inactive)	16 µM (inactive)	10.3 µM (inactive)	13.7 µM (inactive)	16.9 µM (inactive)	3.49 µM (inactive)	10.7 µM (inactive)	14 µM (inactive)			4.95 µM (inactive)
Cc1cccc2oc3c(c(=O)c12)CC(O)C(C)(C)O3 (configuration not stated)	> 100 µM (inactive)	> 100 µM (inactive)	45.8 µM (inactive)	> 100 µM	> 100 µM (inactive)		38.5 µM (inactive)		> 100 µM (inactive)	> 100 µM (inactive)	> 100 µM (inactive)	79.1 µM (inactive)	35.9 µM (inactive)	> 100 µM (inactive)	> 100 µM (inactive)	> 100 µM (inactive)	> 100 µM (inactive)	56.1 µM (inactive)	> 100 µM (inactive)
COc1cc(NCc2ccc3nc(OC)c(OC)nc3c2)cc(OC)c1OC	80.5 µM (inactive)	> 100 µM (inactive)	> 100 µM (inactive)	> 100 µM	> 100 µM (inactive)	> 100 µM (inactive)	> 100 µM (inactive)		69.5 µM (inactive)	> 100 µM (inactive)	> 100 µM (inactive)	42.1 µM (inactive)	86.5 µM (inactive)	> 100 µM (inactive)	> 100 µM (inactive)	97.3 µM (inactive)	> 100 µM (inactive)	89.9 µM (inactive)	18.6 µM (inactive)

Source: ChEMBL document CHEMBL1201862, “PubChem BioAssay data set” (2004)
